Here are results for one compound from patent US5728704A, “Substituted pyridmidines for control of diabetic complications” (Pfizer Inc., priority 1995, dated 1998).

For test [1], the system named is erythrocyte (red blood cell) fructose and sorbitol. The test is described as follows: erythrocyte fructose and sorbitol in streptozocin-diabetic rats after a single oral dose. Type of test: in vivo, rat (male Sprague-Dawley). Conditions: single oral dose 10, 50, 100 or 300 mg/kg. The method, then: (§1) Male Sprague-Dawley rats (350-400 g) were used for these experiments. Diabetes was induced in some of the rats by a tail vein injection of streptozocin, 85 mg/kg. Twenty-four hours later, 4 groups of diabetic rats were given a single dose of 4-[4-(N,N-dimethylsulfamoyl)-piperazino]-2-methylpyrimidine (10, 50, 100, or 300 mg/kg) by oral gavage. Animals were sacrificed 4-6 hours after dosing and blood and sciatic nerves were harvested. Tissues and cells were extracted with 6% perchloric acid.
(§2) Sorbitol in erythrocytes and nerves was measured by a modification of the method of R. S. Clements et al. (Science, 166: 1007-8, 1969). […] After incubation for 30 minutes at room temperature, sample fluorescence was determined on a fluorescence spectrophotometer with excitation at 366 nm and emission at 452 nm. After subtracting appropriate blanks, the amount of sorbitol in each sample was determined from a linear regression of sorbitol standards processed in the same manner as the tissue extracts.
(§3) Fructose was determined by a modification of the method described by M. Ameyama, Methods in Enzymology, 89: 20-25 (1982). […] After incubation for 60 minnutes at room temperature, sample fluorescence was determined on a fluorescence spectrophotometer with excitation at 560 nm and emission at 580 nm. […]

Test [2] concerns the target T1, sorbitol dehydrogenase (Ovis aries, UniProt P07846).
T1 sequence (P07846 1-354): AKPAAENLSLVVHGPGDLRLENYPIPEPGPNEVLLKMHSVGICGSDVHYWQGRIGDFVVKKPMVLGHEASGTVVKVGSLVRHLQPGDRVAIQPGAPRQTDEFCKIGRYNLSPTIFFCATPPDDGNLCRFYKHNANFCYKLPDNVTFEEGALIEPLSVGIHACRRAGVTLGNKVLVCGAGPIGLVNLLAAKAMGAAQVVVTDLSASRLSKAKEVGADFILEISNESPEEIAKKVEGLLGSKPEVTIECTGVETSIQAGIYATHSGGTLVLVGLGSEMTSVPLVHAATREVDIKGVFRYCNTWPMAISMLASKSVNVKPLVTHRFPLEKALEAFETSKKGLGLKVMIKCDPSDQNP
As to the kind of experiment: in vitro inhibition of sorbitol dehydrogenase by sera from dosed rats. Type of test: biochemical. Conditions: sera from rats dosed with the compound (FIG. 5). The method, then:
as §1
(§4) SDH activity was measured by a modification of the method described by U. Gerlach, Methodology of Enzymatic Analyses, edited by H. U. Bergmeyer, 3, 112-117 (1983). Aliquots of sera or urine were added to the assay system, which had final concentrations of reagents of 0.1M potassium phosphate buffer, pH 7.4, 5 mM NAD, 20 mM sorbitol, and 0.7 units/ml of sorbitol dehydrogenase. After incubation for 10 minutes at room temperature, the average change in sample absorbance was determined at 340 nm. SDH activity was presented as milliOD340 units/minute (OD340 =optical density at 340 nm).

The subject of test [3] is sciatic nerve fructose and sorbitol. As to the kind of experiment: sciatic nerve fructose and sorbitol in streptozocin-diabetic rats after a single oral dose. Type of test: in vivo, rat (male Sprague-Dawley). The note with it: single oral dose 10, 50, 100 or 300 mg/kg, 4-6 hours after dosing (FIG. 4). On the procedure: as §1, §2, §3
Test [4] concerns the target T1, sorbitol dehydrogenase. The test is described as follows: inhibition of sorbitol dehydrogenase in vitro (direct test). The note with it: tested directly on sorbitol dehydrogenase in vitro. It is filed as biochemical. The method, then: as §4
The IC50 values indicate the concentration at which fifty percent inhibition of sorbitol dehydrogenase in vitro was observed.

The target of test [5] is T1, sorbitol dehydrogenase. As to the kind of experiment: in vitro inhibition of sorbitol dehydrogenase by urine from dosed rats. Type of test: biochemical. On the procedure:
as §4

Take `Cc1nccc(N2CCN(S(=O)(=O)N(C)C)CC2)n1` [Compound 1, 4-[4-(N,N-dimethylsulfamoyl)-piperazino]-2-methylpyrimidine]: the “erythrocyte (RBC) fructose” value in test [1] (4-6 hours after dosing (FIG. 1)) was “dose dependently lowered”. Further, in test [1] (4-6 hours after dosing (FIG. 2)), the erythrocyte sorbitol result is recorded as “dose dependently raised”. In addition, at sorbitol dehydrogenase [2], the “inhibition of SDH in vitro by sera from dosed rats” value is “potently inhibited SDH in vitro in a dose dependent manner”. Also, in test [3], the sciatic nerve sorbitol entry is on record as “increase in sorbitol”. Also, the IC50 (in general, the concentration that inhibits the measured activity by half) at sorbitol dehydrogenase [4] stood at 500 µM. Besides, the “inhibition of SDH with as little as 0.5 μl of urine” value on sorbitol dehydrogenase [5] (0.5 μl of urine of dosed animals (FIG. 6)) is reported as “strong inhibition”. The “SDH inhibitory activity of urine compared with sera” value at sorbitol dehydrogenase [5] (urine (FIG. 6) compared with sera (FIG. 5)) is reported as “even more potent source of SDH inhibitory activity”. Moreover, the “inhibition of SDH in vitro by urine of dosed animals” value against sorbitol dehydrogenase [5] (urine of animals dosed with the compound (FIG. 6)) is given as “potently inhibited SDH in vitro in a dose dependent manner”.
